Test results reported in publication PMC6588697, “Lugdunin amplifies innate immune responses in the skin in synergy with host- and microbiota-derived factors” (Nature Communications, 2019).
“And” between values parts separate entries of the source, which are not always exact repeats. Equal entries are not always repeated.

How the values were obtained:
mouse skin = assay: Immunohistochemistry of mouse skin sections (LL-37, MIP-2, MPO); format: in vivo
Description: For immunohistochemical stainings of mouse skin, […] tissue sections were de-paraffinized. For MPO staining, antigen retrieval was performed in EDTA buffer at pH 9 (Thermo Fisher Scientific) for 5 min, and for MIP-2 and LL-37, citrate buffer at pH 6 for 9 min was used. Antigen retrieval was performed in a pressure cooker before a slow cooling down of the samples in the buffer. Afterwards, tissue sections were washed in PBS and blocked in 5% donkey serum in PBS containing 0.05% Triton X-100 for 90 min. For MPO staining, tissue sections were subsequently incubated overnight at 4 °C in a humid chamber with a MPO-specific antibody (R&D Systems, Cat#AF3667) diluted 1:50 in a blocking buffer. For MIP-2 and LL-37 staining, tissue sections were first incubated with primary enhancer (Lab Vision™ UltraVision™ LP Detection System, Thermo Fisher Scientific) for 20 min at room temperature, washed, and then incubated with AP polymer (Lab Vision™ UltraVision™ LP Detection System, Thermo Fisher Scientific) for 30 min at room temperature in a humid chamber, followed by incubation with the primary antibodies MIP-2 (Thermo Scientific, Cat#701126, 1:10 in blocking buffer) and LL-37 (Novus Biologicals, Cat#NB100-98689, 1:200 in blocking buffer) overnight at 4 °C in a humid chamber. The next day, tissue sections were washed and incubated with a 1:250 dilution of alkaline phosphatase-coupled secondary antibody (Novus Biologicals) for 90 min in a humid chamber at room temperature. After washing in PBS, staining was performed by using the Lab Vision^TM liquid fast red substrate system (Thermo Fisher Scientific) according to the manufacturer’s instructions. After washing in water, hematoxylin–eosin staining (Agilent/Dako) was performed for 2 min. After another washing step in water, tissue sections were mounted with Kaiser’s glycerol gelatine (Merck).

HTEpCs [1] = assay: Cytokine release into HTEpC supernatant (LEGENDplex / ELISA); format: cell-based, human; settings: 5 h, lugdunin 2 µM or Pam2Cys 100 ng/mL, two technical replicates, Fig 1f
HEK293 cells = assay: CXCL8 expression in HEK-control cells (qRT-PCR); format: cell-based, human; settings: 5 h, Fig 2b
Description: (§1) Fig. 2 Induction of chemokine (C-X-C motif) ligand 8/macrophage inflammatory protein-2 (CXCL8/MIP-2) by lugdunin is TLR2/MyD88-dependent. a HEK-control or HEK-TLR2 cells were treated with 2 μM lugdunin for 5 h and subsequently the CXCL8 concentration in the supernatant was analyzed by LEGENDplex^TM (BioLegend). Shown is one representative experiment of three independent experiments with two technical replicates ± s.e.m. b HEK-control or HEK-TLR2 cells were treated with increasing concentrations of lugdunin for 5 h and subsequently expression of CXCL8 was analyzed and normalized to actin. Shown is one representative experiment of three independent experiments with two technical replicates ± s.e.m. c Schematic overview of the mouse experiments: 6–8-week-old female C5BL/6 WT, MyD88-knockout (ko), or 5xTLR-ko mice were epicutaneously treated with 1.5 µg lugdunin or phosphate-buffered saline (PBS) as a control. After 24 h, mice were euthanized, 4 mm skin punches were taken, and further cultured in vitro for 10 h followed by cytokine analysis of the culture supernatant by LEGENDplex^TM (BioLegend). d, e Shown are the mean concentrations of IL-1α (d) or MIP-2 (e) in the skin culture supernatant of two skin punches from four mice each ± s.e.m. Significant differences to control treatments were analyzed by an unpaired two-tailed t test (*P < 0.05; **P < 0.01; ***P < 0.001). f Representative MIP-2-stained paraffin-embedded mouse skin sections. Scale bar, 100 µM. Source data are provided as a Source Data file
(§2) Quantitative reverse transcription-polymerase chain reaction (qRT-PCR) was performed in 10 µL reaction volume with SYBR^TM Green PCR Master Mix (Thermo Fisher) according to the manufacturer’s instructions using a LightCycler 96 (Roche Life Science). The initial denaturation step was at 95 °C for 5 min, followed by 40 cycles with 10 s each for the denaturation step at 95 °C, the annealing at individual temperature, and the elongation at 72 °C. Primer sequences and respective annealing temperatures are listed in Supplementary Table 1. […]

HTEpCs [2] = assay: CXCL8 expression in HTEpCs (qRT-PCR); format: cell-based, human; settings: 5 h, two technical replicates
Description: as §2
(§3) 31 g+h+i: HNEpCs (b), HTEpCs (c) or PBMCs (d) were treated with increasing
(§4) 32 concentrations of lugdunin (grey bars) or 100 ng/mL Pam2Cys or Pam3Cys (white
(§5) 33 bars) as positive controls for 5 hours and subsequently expression of CXCL8 was
(§6) 34 analyzed and normalized to actin. Black bar: medium control. Shown is one
(§7) 35 representative experiment of three independent experiments with two technical
(§8) 36 replicates +/-s.e.m. Significant differences to control treatments were analyzed by
(§9) 37 ordinary one-way ANOVA followed by Dunnett’s multiple comparisons test (*P<0.05; […]

HNEpCs [3] = assay: Cytokine release into HNEpC supernatant (LEGENDplex / ELISA); format: cell-based, human; settings: 5 h, lugdunin 2 µM or Pam2Cys 100 ng/mL, two technical replicates, Fig 1f
HNEpCs [4] = assay: CXCL8 expression in HNEpCs (qRT-PCR); format: cell-based, human; settings: 5 h, two technical replicates
Description: as §2, §3, §4, §5, §6, §7, §8, §9

HEK293-TLR2 cells = assay: CXCL8 expression in HEK-TLR2 cells (qRT-PCR); format: cell-based, human; settings: 5 h, two technical replicates, Fig 2b
Description: as §1, §2

## Lugdunin
Mouse skin; epicutaneous application, Fig 3e
  MPO-positive cells in mouse skin sections (IHC, in words): recruitment of MPO-positive cells into the dermis
Mouse skin; epicutaneous application, Supp Fig 1
  LL-37 in mouse skin sections (IHC, in words): expression of LL-37 in keratinocytes was confirmed
Mouse skin; epicutaneous treatment, Fig 2f
  MIP-2 in mouse skin sections (IHC, in words): MIP-2 production by keratinocytes in the epidermis and the hair follicles
HTEpCs [1]
  CXCL8 concentration in supernatant: 214.845 and 210.300
HEK293 cells; lugdunin 0.5 µM, medium = 1, two technical replicates
  CXCL8 expression normalized to actin: 1.3 and 1.16
HEK293 cells; lugdunin 1 µM, two technical replicates
  CXCL8 expression normalized to actin: 1.15 and 1.02
HEK293 cells; lugdunin 2 µM, two technical replicates
  CXCL8 expression normalized to actin: 2.66 and 2.46
HEK293 cells; lugdunin 3 µM, two technical replicates
  CXCL8 expression normalized to actin: 1.96 and 1.97
HEK293 cells; lugdunin 5 µM, two technical replicates
  CXCL8 expression normalized to actin: 2.91 and 2.73
HEK293 cells; lugdunin 10 µM, two technical replicates
  CXCL8 expression normalized to actin: 1.84 and 1.91
HTEpCs [2]; lugdunin 0.5 µM, sheet Supp Fig 1g
  CXCL8 fold induction: 1.537 and 1.231
HTEpCs [2]; lugdunin 1 µM
  CXCL8 fold induction: 4.112 and 4.228
HTEpCs [2]; lugdunin 2 µM
  CXCL8 fold induction: 16.564 and 16
HTEpCs [2]; lugdunin 3 µM
  CXCL8 fold induction: 18.001 and 14.929
HTEpCs [2]; lugdunin 5 µM
  CXCL8 fold induction: 23.264 and 22.316
HTEpCs [2]; lugdunin 10 µM
  CXCL8 fold induction: 16.056 and 17.328
HNEpCs [3]
  CXCL8 concentration in supernatant: 421.035 and 417.001
HNEpCs [4]; lugdunin 0.5 µM, sheet Supp Fig 1f
  CXCL8 fold induction: 2.151 and 2.454
HNEpCs [4]; lugdunin 1 µM
  CXCL8 fold induction: 2.621
HNEpCs [4]; lugdunin 2 µM
  CXCL8 fold induction: 6.148 and 8.056
HNEpCs [4]; lugdunin 3 µM
  CXCL8 fold induction: 5.836 and 8.253
HNEpCs [4]; lugdunin 5 µM
  CXCL8 fold induction: 4.724 and 6.453
HNEpCs [4]; lugdunin 10 µM
  CXCL8 fold induction: 1.659 and 2.014
HEK293-TLR2 cells; HEK-TLR2, lugdunin 0.5 µM, medium = 1
  CXCL8 expression normalized to actin: 2.676 and 2.042
HEK293-TLR2 cells; HEK-TLR2, lugdunin 1 µM
  CXCL8 expression normalized to actin: 1.404 and 1.257
HEK293-TLR2 cells; HEK-TLR2, lugdunin 2 µM
  CXCL8 expression normalized to actin: 3.918 and 4.112
HEK293-TLR2 cells; HEK-TLR2, lugdunin 3 µM
  CXCL8 expression normalized to actin: 4.408 and 3.864
HEK293-TLR2 cells; HEK-TLR2, lugdunin 5 µM
  CXCL8 expression normalized to actin: 6.364 and 6.916
HEK293-TLR2 cells; HEK-TLR2, lugdunin 10 µM
  CXCL8 expression normalized to actin: 9.415 and 10.232
